According to US10947213B1 (Merck Patent GmbH, priority 2015, dated 2021):
Where a name gives a salt, the structure may show the parent alone.

These compounds were tested against T1, TLR7/NFKb HEK cells (Homo sapiens, UniProt Q9NYK1) (assay: HEK Cell Assay (TLR7/NFKb reporter, Steady-Glo luciferase readout)). Conditions: 30 min compound preincubation, then R*48 agonist for 5 hours, read-out: Potency.
T1 construct: expressed in transfected cells; host or cells: HEK cells (TLR7/NFKb reporter line)
T1 sequence (Q9NYK1 27-1049): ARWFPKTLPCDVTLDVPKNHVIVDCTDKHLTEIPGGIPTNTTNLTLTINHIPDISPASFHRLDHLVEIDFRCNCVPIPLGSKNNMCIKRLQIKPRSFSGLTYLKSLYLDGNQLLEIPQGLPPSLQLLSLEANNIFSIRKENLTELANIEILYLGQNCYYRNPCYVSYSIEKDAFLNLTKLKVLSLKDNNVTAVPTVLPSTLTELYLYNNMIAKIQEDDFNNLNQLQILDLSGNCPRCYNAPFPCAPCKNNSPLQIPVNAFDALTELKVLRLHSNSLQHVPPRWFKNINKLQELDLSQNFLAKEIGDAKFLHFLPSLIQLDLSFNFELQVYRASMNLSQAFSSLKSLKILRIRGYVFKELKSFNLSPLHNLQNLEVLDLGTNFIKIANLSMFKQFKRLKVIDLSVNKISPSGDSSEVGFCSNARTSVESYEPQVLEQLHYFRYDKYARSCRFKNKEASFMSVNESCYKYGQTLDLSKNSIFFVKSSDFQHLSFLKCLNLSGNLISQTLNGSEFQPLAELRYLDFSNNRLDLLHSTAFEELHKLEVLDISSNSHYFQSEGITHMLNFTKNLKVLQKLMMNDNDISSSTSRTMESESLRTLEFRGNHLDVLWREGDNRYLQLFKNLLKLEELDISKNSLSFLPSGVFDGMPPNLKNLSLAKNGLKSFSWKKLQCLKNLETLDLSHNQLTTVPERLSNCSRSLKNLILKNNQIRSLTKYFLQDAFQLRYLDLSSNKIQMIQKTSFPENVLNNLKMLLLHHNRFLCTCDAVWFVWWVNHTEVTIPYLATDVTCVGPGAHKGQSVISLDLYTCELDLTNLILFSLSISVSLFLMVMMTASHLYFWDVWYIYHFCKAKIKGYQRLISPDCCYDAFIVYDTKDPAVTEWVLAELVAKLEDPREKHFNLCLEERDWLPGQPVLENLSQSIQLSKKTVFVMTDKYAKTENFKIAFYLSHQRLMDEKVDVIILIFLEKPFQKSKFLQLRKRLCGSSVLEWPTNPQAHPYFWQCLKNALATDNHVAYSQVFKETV
Type: cell-based
Procedure, shortened: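 Steady-Glo luminescence after 5 h stimulation with R*48 agonist, following 30 min compound preincubation. Assay run in HEK cells carrying a TLR7/NFKb luciferase reporter, plated at 5000 cells/well and grown 24 h at 37° C (10% CO2) before treatment.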
With C[C@H]1C[C@@H](NC(=O)CC2(C)CCN(C)CC2)CN(c2ccc(C(F)(F)F)c3ncccc23)C1 [Compound 245, 2-(1,4-dimethylpiperidin-4-yl)-N-[(3R,5S)-5-methyl-1-[8-(trifluoromethyl)quinolin-5-yl]piperidin-3-yl]acetamide] the IC50 was < 1000 nM. In the case of C[C@H]1C[C@@H](NC(=O)CC2CCN(CC(F)F)CC2)CN(c2ccc(C(F)(F)F)c3ncccc23)C1 [Compound 246, 2-[1-(2,2-difluoroethyl)piperidin-4-yl]-N-[(3R,5S)-5-methyl-1-[8-(trifluoromethyl)quinolin-5-yl]piperidin-3-yl]acetamide], the IC50 is reported as < 1000 nM. With C[C@H]1C[C@@H](NC(=O)C2CC(F)(F)C2)CN(c2ccc(C(F)(F)F)c3ncccc23)C1 [Compound 247, 3,3-difluoro-N-[(3R,5S)-5-methyl-1-[8-(trifluoromethyl)quinolin-5-yl]piperidin-3-yl]cyclobutane-1-carboxamide] the IC50 was < 1000 nM. For C[C@H]1C[C@@H](NC(=O)C2CCN(C)C2)CN(c2ccc(C(F)(F)F)c3ncccc23)C1 (stereo partly drawn) [Compound 248, 1-methyl-N-[(3R,5S)-5-methyl-1-[8-(trifluoromethyl)quinolin-5-yl]piperidin-3-yl]pyrrolidine-3-carboxamide], the IC50 was < 1000 nM. In the case of C[C@H]1C[C@@H](NC(=O)CN2CCOCC2)CN(c2ccc(C(F)(F)F)c3nccnc23)C1 [Compound 249, N-[(3R,5S)-5-methyl-1-[8-(trifluoromethyl)quinoxalin-5-yl]piperidin-3-yl]-2-(morpholin-4-yl)acetamide], the IC50 is reported as < 1000 nM. With C[C@H]1C[C@@H](NC(=O)CO)CN(c2ccc(C(F)(F)F)c3nccnc23)C1 [Compound 250, 2-hydroxy-N-[(3R,5S)-5-methyl-1-[8-(trifluoromethyl)quinoxalin-5-yl]piperidin-3-yl]acetamide] the IC50 was < 1000 nM. C[C@H]1C[C@@H](NC(=O)C2(O)CC2)CN(c2ccc(C(F)(F)F)c3nccnc23)C1 [Compound 251, 1-hydroxy-N-[(3R,5S)-5-methyl-1-[8-(trifluoromethyl)quinoxalin-5-yl]piperidin-3-yl]cyclopropane-1-carboxamide] showed an IC50 of 1000 to 10000 nM. C[C@H]1C[C@@H](NC(C)(C)CO)CN(c2ccc(C(F)(F)F)c3nccnc23)C1 [Compound 252, 2-methyl-2-[[(3R,5S)-5-methyl-1-[8-(trifluoromethyl)quinoxalin-5-yl]piperidin-3-yl]amino]propan-1-ol] gave an IC50 of 1000 to 10000 nM. In the case of C[C@H]1C[C@@H](NC(=O)CC2CCN(C)CC2)CN(c2ccc(C(F)(F)F)c3nccnc23)C1 [Compound 253, N-[(3R,5S)-5-methyl-1-[8-(trifluoromethyl)quinoxalin-5-yl]piperidin-3-yl]-2-(1-methylpiperidin-4-yl)acetamide], the IC50 is reported as < 1000 nM. For C[C@H]1C[C@@H](NC(=O)CN(C)C)CN(c2ccc(C(F)(F)F)c3nccnc23)C1 [Compound 254, 2-(dimethylamino)-N-[(3R,5S)-5-methyl-1-[8-(trifluoromethyl)quinoxalin-5-yl]piperidin-3-yl]acetamide], the IC50 was < 1000 nM. In the case of C[C@H]1C[C@@H](NC(=O)CC2(C)CCN(C)CC2)CN(c2ccc(C(F)(F)F)c3nccnc23)C1 [Compound 255, 2-(1,4-dimethylpiperidin-4-yl)-N-[(3R,5S)-5-methyl-1-[8-(trifluoromethyl)quinoxalin-5-yl]piperidin-3-yl]acetamide], the IC50 is reported as < 1000 nM. C[C@H]1C[C@@H](NC(=O)CC2CCN(CC(F)F)CC2)CN(c2ccc(C(F)(F)F)c3nccnc23)C1 [Compound 256, 2-[1-(2,2-difluoroethyl)piperidin-4-yl]-N-[(3R,5S)-5-methyl-1-[8-(trifluoromethyl)quinoxalin-5-yl]piperidin-3-yl]acetamide] was tested, and the IC50 was < 1000 nM. For C[C@H]1C[C@@H](NC(=O)C2CC(F)(F)C2)CN(c2ccc(C(F)(F)F)c3nccnc23)C1 [Compound 257, 3,3-difluoro-N-[(3R,5S)-5-methyl-1-[8-(trifluoromethyl)quinoxalin-5-yl]piperidin-3-yl]cyclobutane-1-carboxamide], the IC50 was 1000 to 10000 nM. In the case of C[C@H]1C[C@@H](NC(=O)C2CCN(C)C2)CN(c2ccc(C(F)(F)F)c3nccnc23)C1 (stereo partly drawn) [Compound 258, 1-methyl-N-[(3R,5S)-5-methyl-1-[8-(trifluoromethyl)quinoxalin-5-yl]piperidin-3-yl]pyrrolidine-3-carboxamide], the IC50 is reported as < 1000 nM. With C[C@H]1C[C@@H](NC(=O)CN2CCN(C)CC2)CN(c2ccc(C(F)(F)F)c3nccnc23)C1 [Compound 259, N-[(3R,5S)-5-methyl-1-[8-(trifluoromethyl)quinoxalin-5-yl]piperidin-3-yl]-2-(4-methylpiperazin-1-yl)acetamide] the IC50 was < 1000 nM. With C[C@H]1C[C@@H](NC(=O)CN2CCOCC2)CN(c2ccc(Cl)c3ncccc23)C1 [Compound 262, N-[(3R,5S)-1-(8-chloroquinolin-5-yl)-5-methylpiperidin-3-yl]-2-(morpholin-4-yl)acetamide] the IC50 was < 1000 nM. For C[C@H]1C[C@@H](NC(=O)CO)CN(c2ccc(Cl)c3ncccc23)C1 [Compound 263, N-[(3R,5S)-1-(8-chloroquinolin-5-yl)-5-methylpiperidin-3-yl]-2-hydroxyacetamide], the IC50 was < 1000 nM. For C[C@H]1C[C@@H](NC(=O)CN(C)C)CN(c2ccc(Cl)c3ncccc23)C1 [Compound 264, N-[(3R,5S)-1-(8-chloroquinolin-5-yl)-5-methylpiperidin-3-yl]-2-(dimethylamino)acetamide], the IC50 was < 1000 nM. With CC(O)C(=O)N[C@@H]1C[C@H](C)CN(c2ccc(C#N)c3nccnc23)C1 (stereo partly drawn) [Compound 265, N-[(3R,5S)-1-(8-cyanoquinoxalin-5-yl)-5-methylpiperidin-3-yl]-2-hydroxypropanamide] the IC50 was < 1000 nM. With C[C@H]1C[C@@H](NC(=O)CC2CCCN(C)C2)CN(c2ccc(C#N)c3nccnc23)C1 (stereo partly drawn) [Compound 266, N-[(3R,5S)-1-(8-cyanoquinoxalin-5-yl)-5-methylpiperidin-3-yl]-2-(1-methylpiperidin-3-yl)acetamide hydrochloride] the IC50 was < 1000 nM. In the case of CC(C(=O)N[C@@H]1C[C@H](C)CN(c2ccc(C#N)c3nccnc23)C1)N1CC(N)C1 (stereo partly drawn) [Compound 267, 2-(3-aminoazetidin-1-yl)-N-[(3R,5S)-1-(8-cyanoquinoxalin-5-yl)-5-methylpiperidin-3-yl]propanamide], the IC50 is reported as < 1000 nM. For C[C@H]1C[C@@H](NC(=O)C(N)C2CC2)CN(c2ccc(C#N)c3nccnc23)C1 (stereo partly drawn) [Compound 268, 2-amino-N-[(3R,5S)-1-(8-cyanoquinoxalin-5-yl)-5-methylpiperidin-3-yl]-2-cyclopropylacetamide], the IC50 was < 1000 nM. C[C@H]1C[C@@H](NC(=O)CC2CCN(C)C2)CN(c2ccc(C#N)c3nccnc23)C1 (stereo partly drawn) [Compound 269, N-[(3R,5S)-1-(8-cyanoquinoxalin-5-yl)-5-methylpiperidin-3-yl]-2-(1-methylpyrrolidin-3-yl)acetamide] was tested, and the IC50 was < 1000 nM. C[C@H]1C[C@@H](NC(=O)CN2CC(O)C2)CN(c2ccc(C#N)c3nccnc23)C1 [Compound 270] was tested, and the IC50 was < 1000 nM. For CC(C(=O)N[C@@H]1C[C@H](C)CN(c2ccc(C#N)c3nccnc23)C1)N1CC(O)C1 (some centres unmarked) [Compound 271], the IC50 was < 1000 nM. C[C@H]1C[C@@H](NC(=O)CC2CC2(F)F)CN(c2ccc(C#N)c3nccnc23)C1 (stereo partly drawn) [Compound 272, N-[(3R,5S)-1-(8-cyanoquinoxalin-5-yl)-5-methylpiperidin-3-yl]-2-(2,2-difluorocyclopropyl)acetamide] was tested, and the IC50 was < 1000 nM.
